# Tests used:
# YAC-1 target cells = assay: Lytic activity of stimulated nude mouse splenocytes (calcein release); format: cell-based; settings: four days in equivalent molar amounts; YAC-1 targets
# [1] = system: HT29 (p53+/HLA-A2.1-) tumors; assay: HT29 xenograft tumor growth in nude mice; format: in vivo; settings: not shown
# Protocol: (§1) The tumor lines used in this study were MBA-MD-231 (p53+/HLA-A2.1+), PANC1 (p53+/HLA-A2.1+), AsPC1(p53-/HLA-A2.1-) and HT29 (p53+/HLA-A2.1-). […] J. Immunol. 176:3223. Primary tumors derived from these cells were established in nude mice following subcutaneous injection. Mice were then treated as previously described with 264scTCR/IL-2, rhIL-2 or PBS and tumor volumes were measured.
# [2] = system: p53-/HLA-A2.1- AsPC1 tumor cells; assay: AsPC1 xenograft tumor growth in nude mice; format: in vivo; settings: 9 doses i.v.
# Protocol: as §1
# A375 tumors = assay: Tumor infiltration of adoptively transferred splenocytes pre-coated with scTCR/IL-2; format: in vivo, nude mice; settings: 24 hrs after transfer of pre-coated splenocytes
# Protocol: FIG. 28 depicts targeted tumor infiltration of adoptively transferred splenocytes pre-coated with scTCR/IL-2. […] Boxes, interquartile range of distribution (25th-75th percentile); line within box, median; whisker, 5th-[…]. *, P<0.0001; **, P<0.0001. At least three tumors per group and 10 fields per tumor were analyzed.
# The activated splenocytes were isolated and incubated with the respective scTCR/IL-2 fusion proteins in vitro to coat the surface of the cells prior to transfer into A375 tumor bearing nude mouse recipients. Tumors were then isolated 24 hrs later and levels of CD45R+NK cells were assessed.
# [3] = system: p53+/HLA-A2.1+ PANC1 tumor cells; assay: PANC1 xenograft tumor growth in nude mice; format: in vivo; settings: 9 doses i.v.
# Protocol: as §1
# [4] = system: human A375 cell line tumors; assay: A375 primary tumor growth model in nude mice
# [5] = system: p53+/HLA-A2.1+ MDA-MB-231 tumor cells; assay: MDA-MB-231 xenograft tumor growth in nude mice; format: in vivo; settings: compared to PBS; 9 doses i.v.
# [6] = system: immune cells (splenocytes, lymph nodes, bone marrow); assay: In vivo activation of immune cells in A375 tumor-bearing nude mice
# Description: FIG. 19A and FIG. 19B depict in vivo activation of immune cells in mice following scTCR/IL-2 treatment. […] Splenocytes were isolated at the indicated times and analyzed by flow cytometry for expression of CD25, CD122 or pan-NK markers. The plots indicate the percentage of CD25, CD122 or pan-NK-positive staining (dark line) compared with splenocyte staining with an isotype control mAb (red line).
# The effect of the scTCR/IL-2 fusion proteins on immune cells was also investigated in vivo. […] Changes in IL-2R subunit expression were also assessed in immune cells isolated from the spleens, lymph nodes and bone marrow of 264scTCR/IL-2- or MART-1scTCR/IL-2-treated mice.
# [7] = system: p53 (aa 264-272) peptide-loaded T2 cells and CTLL-2 cells; assay: Cell-cell conjugation assay (flow cytometry); format: cell-based, human T2 cells, mouse CTLL-2 cells
# Protocol: FIG. 20A, FIG. 20B, FIG. 20C, and FIG. 20D depict in vitro conjugation of IL-2 receptor-bearing immune cells with antigen presenting target cells mediated by scTCR/IL-2 fusion protein. T2 cells were loaded with either p53 (aa 264-272) or p53 (aa 149-157) (control) peptides and then labeled with HE. CTLL-2 cells were labeled with calcein AM. Labeled cells were mixed and incubated in the presence or absence of 264scTCR/IL-2 fusion protein and the samples were analyzed by flow cytometry. Assay conditions including loading peptide used and presence or absence of fusion protein are indicated beneath each histogram. Single stained regions are marked 1 and 3 and the double stained cell poplulation is marked 2.
# In this experiment, T2 cells pulsed with either the 149 or 264 peptide. CTLL-2 cells were hydrodiethidium (HE) labeled and incubated for 20 minutes at RT with an equal number of calcein-AM labeled T2 cells pulsed with either 50 μg of 149 or 264 peptide. […] In contrast, conjugate formation was not observed with the mixture that included the 149 peptide pulsed T2 cells (B; 0.88%). Cell samples were washed one time before analysis on the flow cytometer.
# Samples were analyzed by flow cytometry. […] Thus, the scTCR/IL-2 fusion protein could be useful in a therapeutic approach for bringing together immune effector cells and tumor cells and stimulating immune cell-mediated activity against the tumor.
# CD45R+ cells in tumors = assay: Immune cell infiltration into tumors (CD45R immunohistochemistry); format: in vivo, nude mice
# [8] = system: human NSCLC A549-A2 tumor cells; assay: Adoptive transfer of preincubated NK cells in A549-A2 experimental metastasis model; format: in vivo, athymic nude mice; settings: CTX 200 mg/kg ip days 14, 21; NK cells preincubated with the protein iv days 16, 22 (CTX group: no NK cells)
molecule,measurement,setting,value
264scTCR/IL-2: soluble three domain single-chain TCR specific to human p53 (aa 264-272)/HLA-A2.1 linked to human IL-2 via a peptide linker,lytic activity of stimulated mouse splenocytes,YAC-1 target cells,Equivalent levels of lytic activity
same,tumor growth,[1],tumor outgrowth was not inhibited
same,tumor growth,[2],tumor outgrowth was not inhibited
same,cells bound with fusion protein infiltrating into tumors,A375 tumors,3.0 BF1+ cells/field of view
same,infiltration of CD45R+ cells,A375 tumors,10.3 CD45R+ cells/field of view
same,tumor growth,[3],significant antitumor effects
same,mice that developed tumors,"[4]; 3 μg dose, 9 doses",all of the mice developed tumors
same,average tumor size,"[4]; 3 μg dose, 9 doses, vs PBS",significantly smaller than that of the PBS treated mice
same,A375 tumor growth compared to PBS,"[4]; 0.5 mg/kg i.v., four daily injections, 10-day rest, four more",potent antitumor activity
same,mice that developed tumors,"[4]; 0.5 mg/kg/dose, 9 doses",six of the eight
same,tumor weight at the end of the study,[4]; 1.6 mg/kg and 0.5 mg/kg doses vs rhIL-2 0.4 mg/kg,significantly more effective at reducing tumor burden than the high dose of rhIL-2
same,mice that developed tumors,"[4]; 1.6 mg/kg i.v., 9 doses, tumors established three days",50%
same,mice that developed tumors,"[4]; 1.6 mg/kg/dose, 9 doses",four of the eight
same,tumor growth,"[4]; 0.5 or 0.2 mg/kg, four daily injections, 10-day rest, four more, compared with 0.125 mg/kg rhIL-2",significantly inhibited tumor growth
same,tumor growth following two dosing cycles,"[4]; 264scTCR/IL-2 0.5 mg/kg daily x4 per cycle, rhIL-2 0.4 mg/kg every 8 hrs for five days per cycle",inhibited tumor growth to a similar degree
same,growth of well-established tumors,"[4]; tumors grown to 75 or 200 mm^3, 9 doses i.v.",marked inhibition of tumor growth and partial to complete regression of tumors in most mice
same,tumor growth,[5],significant antitumor effect
same,NK cells,[6]; repeated administration,treatment-dependent increase in NK cells
same,lymph nodes and spleens,[6]; repeated daily i.v. 32 μg/dose,enlargement of lymph nodes and spleens
same,serum IFN-γ levels,[6]; repeated daily i.v. 32 μg/dose,increase in serum IFN-γ levels
same,expression of CD122 and CD25 in cells from lymph nodes and bone marrow,[6]; repeated daily treatment,Elevated expression
same,Splenocytes expressing IL-2Rα (CD25) or IL-2≈ (CD122),"[6]; repeated daily treatments, peak one day after fourth treatment",increased approximately three-fold
same,"conjugated (double stained) cells, share of total population","[7]; 149 control peptide-loaded T2 cells + CTLL-2 cells, fusion protein present (or fusion protein absent)",approximately 0.9%
same,"conjugated (double stained) cells, share of total population","[7]; 149 control peptide-loaded T2 cells + CTLL-2 cells, fusion protein present (or fusion protein absent), listed as 264 scTCR-IL-2",0.88%
same,"conjugated (double stained) cells, share of total population","[7]; 264 peptide-loaded T2 cells + CTLL-2 cells, fusion protein present (1 μg)",3.25%
same,CD45R-positive cells in A375 tumors,CD45R+ cells in tumors; A375 (p53+/HLA.A2.1+) tumor sections,Complete tumor infiltration of large CD45R+ cells
same,CD45R+ cell infiltration,"CD45R+ cells in tumors; A375 tumors, 10 μg/dose, four days of daily treatment",14.5 CD45R+ cells/field of view
same,CD45R-positive cells in AsPC1 tumors,CD45R+ cells in tumors; AsPC1 (p53-/HLA-A2.1-) tumor sections,no differences were observed between treatment groups
"O=P1(N(CCCl)CCCl)NCCCO1 (centres unmarked) [CTX, cyclophosphamide, reference compound]",Median survival,[8],52 days
